Key:
sedge, umbrella = assay: Test B flooded paddy test; format: in vivo, Cyperus difformis; details: 500 g ai/ha, Flood; scale of 0 to 100 where 0 is no effect and 100 is complete control
Outline: (§1)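 Plants were grown to the 2-leaf stage, then pots were flooded to 3 cm above the soil and compound was applied directly into the paddy water, with that depth held throughout. After 13 to 15 days in a greenhouse, injury was rated visually against untreated controls on a 0 to 100 scale (100 = complete control).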

ragweed = assay: Test C pre-/postemergence herbicide test; format: in vivo, Ambrosia elatior
Outline: (§2)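 Greenhouse plants scored visually against untreated controls 13–15 days after treatment, 0 = no effect, 100 = complete control. Test chemicals in a non-phytotoxic solvent with surfactant were applied either to soil (loam/sand) at planting or to foliage of 1- to 4-leaf plants, 2–18 cm tall.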

barnyardgrass = assay: Test B flooded paddy test; format: in vivo, Echinochloa crus-galli; details: 500 g ai/ha, Flood; scale of 0 to 100 where 0 is no effect and 100 is complete control
Outline: as §1

johnsongrass = assay: Test C pre-/postemergence herbicide test; format: in vivo, Sorghum halepense
Outline: as §2

wheat (winter wheat) = assay: Test C pre-/postemergence herbicide test; format: in vivo, Triticum aestivum
Outline: as §2

blackgrass = assay: Test C pre-/postemergence herbicide test; format: in vivo, Alopecurus myosuroides
Outline: as §2

wheat = assay: Test A pre-/postemergence herbicide test; format: in vivo, Triticum aestivum; details: Postemergence
Outline: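 Visual 0–100 ratings (100 = complete control) made about 10 days after treatment, greenhouse-held plants compared with untreated controls. Treatments: postemergence sprays on one- to two-leaf plants (2–10 cm tall) and preemergence directed soil sprays after planting in loam–sand, chemicals formulated in non-phytotoxic solvent containing surfactant.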

pigweed = assay: Test C pre-/postemergence herbicide test; format: in vivo, Amaranthus retroflexus
Outline: as §2

velvetleaf = assay: Test C pre-/postemergence herbicide test; format: in vivo, Abutilon theophrasti
Outline: as §2

oilseed rape = assay: Test C pre-/postemergence herbicide test; format: in vivo, Brassica napus
Outline: as §2

rice = assay: Test B flooded paddy test; format: in vivo, Oryza sativa; details: 500 g ai/ha, Flood; scale of 0 to 100 where 0 is no effect and 100 is complete control
Outline: as §1

crabgrass, large = assay: Test C pre-/postemergence herbicide test; format: in vivo, Digitaria sanguinalis
Outline: as §2

[1] = Postemergence, 31 g ai/ha, scale 0 to 100 (0 no effect, 100 complete control)
[2] = Postemergence, 62 g ai/ha, scale 0 (no effect) to 100 (complete control)
[3] = Postemergence, 125 g ai/ha, scale 0 to 100 (0 no effect, 100 complete control)
[4] = Postemergence, 250 g ai/ha, scale 0 to 100 (0 no effect, 100 complete control)
[5] = Preemergence, 62 g ai/ha, scale 0 to 100 (0 no effect, 100 complete control)
[6] = Preemergence, 125 g ai/ha, scale 0 to 100
[7] = Preemergence, 31 g ai/ha, scale 0 to 100, 0 is no effect and 100 is complete control

O=C1NCC(c2cccc(C(F)(F)F)c2)C1C(=O)Nc1ccccc1Cl (stereo not drawn) [Compound 312]
Plant response rating, Sedge, Umbrella (sedge, umbrella): 0
Plant response rating, Ragweed (ragweed; [1]): 40
Plant response rating, Ragweed (ragweed; [2]): 35
Plant response rating, Ragweed (ragweed; [3]): 45
Plant response rating, Ragweed (ragweed; [4]): 55
Ragweed plant response rating (ragweed; [5]): 0
Plant response rating, Ragweed (ragweed; [6]): 50
Plant response rating (scale of 0 to 100), Ragweed (ragweed; Preemergence, 250 g ai/ha): 10
Plant response rating, Barnyardgrass (barnyardgrass): 75
Plant response rating, Johnsongrass (johnsongrass; [1]): 0
Plant response rating, Johnsongrass (johnsongrass; [2]): 0
Plant response rating, Johnsongrass (johnsongrass; [3]): 25
Plant response rating, Johnsongrass (johnsongrass; [4]): 0
Johnsongrass plant response rating (johnsongrass; [7]): 30
Johnsongrass plant response rating (johnsongrass; [5]): 50
Plant response rating, Johnsongrass (johnsongrass; [6]): 80
Plant response rating (scale of 0 to 100), Johnsongrass (johnsongrass; Preemergence, 250 g ai/ha): 85
Plant response rating, Wheat (wheat (winter wheat); [1]): 0
Plant response rating, Wheat (wheat (winter wheat); [2]): 0
Plant response rating, Wheat (wheat (winter wheat); [3]): 0
Plant response rating, Wheat (wheat (winter wheat); [4]): 0
Wheat plant response rating (wheat (winter wheat); [5]): 30
Plant response rating, Wheat (wheat (winter wheat); [6]): 60
Plant response rating (scale of 0 to 100), Wheat (wheat (winter wheat); Preemergence, 250 g ai/ha): 65
Plant response rating, Blackgrass (blackgrass; [1]): 0
Plant response rating, Blackgrass (blackgrass; [2]): 0
Plant response rating, Blackgrass (blackgrass; [3]): 0
Plant response rating, Blackgrass (blackgrass; [4]): 0
Blackgrass plant response rating (blackgrass; [7]): 40
Blackgrass plant response rating (blackgrass; [5]): 45
Plant response rating, Blackgrass (blackgrass; [6]): 70
Plant response rating (scale of 0 to 100), Blackgrass (blackgrass; Preemergence, 250 g ai/ha): 75
Plant response rating, Wheat (wheat; 125 g ai/ha, visual rating on 0 to 100 scale (0 no effect, 100 complete control), approx. 10 days): 40
Plant response rating, Wheat (wheat; 500 g ai/ha, 0 to 100 scale (0 no effect, 100 complete control)): 70
Plant response rating, Pigweed (pigweed; [1]): 10
Plant response rating, Pigweed (pigweed; [2]): 20
Plant response rating, Pigweed (pigweed; [3]): 25
Plant response rating, Pigweed (pigweed; [4]): 45
Pigweed plant response rating (pigweed; [7]): 25
Pigweed plant response rating (pigweed; [5]): 40
Plant response rating, Pigweed (pigweed; [6]): 45
Plant response rating (scale of 0 to 100), Pigweed (pigweed; Preemergence, 250 g ai/ha): 55
Plant response rating, Velvetleaf (velvetleaf; [1]): 30
Plant response rating, Velvetleaf (velvetleaf; [2]): 0
Plant response rating, Velvetleaf (velvetleaf; [3]): 0
Plant response rating, Velvetleaf (velvetleaf; [4]): 35
Velvetleaf plant response rating (velvetleaf; [5]): 15
Plant response rating, Velvetleaf (velvetleaf; [6]): 20
Plant response rating (scale of 0 to 100), Velvetleaf (velvetleaf; Preemergence, 250 g ai/ha): 40
Plant response rating, Oilseed Rape (oilseed rape; [1]): 0
Plant response rating, Oilseed Rape (oilseed rape; [2]): 0
Plant response rating, Oilseed Rape (oilseed rape; [3]): 0
Plant response rating, Oilseed Rape (oilseed rape; [4]): 0
Oilseed Rape plant response rating (oilseed rape; [7]): 0
Oilseed Rape plant response rating (oilseed rape; [5]): 0
Plant response rating, Oilseed Rape (oilseed rape; [6]): 15
Plant response rating (scale of 0 to 100), Oilseed Rape (oilseed rape; Preemergence, 250 g ai/ha): 30
Plant response rating, Rice (rice): 20
Plant response rating, Crabgrass, Large (crabgrass, large; [1]): 25
Plant response rating, Crabgrass, Large (crabgrass, large; [2]): 50
Plant response rating, Crabgrass, Large (crabgrass, large; [3]): 80
Plant response rating, Crabgrass, Large (crabgrass, large; [4]): 90
Crabgrass, Large plant response rating (crabgrass, large; [7]): 90
Crabgrass, Large plant response rating (crabgrass, large; [5]): 95
Plant response rating, Crabgrass, Large (crabgrass, large; [6]): 95
Plant response rating (scale of 0 to 100), Crabgrass, Large (crabgrass, large; Preemergence, 250 g ai/ha): 95

Reference: patent US10294202B2, “Pyrrolidinones as herbicides” (FMC Corporation, priority 2013, dated 2019)
